# Assay results taken from patent US12564638B2 (SHANGHAITECH UNIVERSITY, priority 2019, dated 2026).
# Where two headings read alike, the source gives them in different places.
# Key:
# [1] = system: PC9 cells (EGFR Exon 19 del, non-small cell lung cancer cells); test: Cell viability assay (WST/CCK8), PC9 cells; assay type: cell-based; conditions: Homo sapiens, PC-9, PC9 (Exon19 Del), 72 hours, read-out: IC50 (half inhibitory concentration)
# Description: The cell lines with abnormal EGFR expression used are as follows: • HCC827 cells (EGFR Exon19 del, non-small cell lung cancer cells); • PC9 cells (EGFR Exon 19 del, non-small cell lung cancer cells); • PC9BracA1 (EGFR Exon 19 del+T790M, non-small cell lung cancer cells) • H1975 (EGFR Exon T790M+L858R mutation, non-small cell lung cancer cell line) • BT474 cells (HER2 positive breast cancer cells)
# All of the half inhibitory concentrations (IC50) of these compounds of the present invention were determined with WST reagent from Fuyuan Biotec Company. The specific experiment procedures are as follows: Cancer cells were planted in 96-well-plate at the density of 3 000 cells per well with 100 μL RPMI1640 completed culture medium. In the next day, compounds with indicated concentrations were added to the cells, DMSO was used as the negative control and the EGFR TKIs were used to treat cells as the positive groups. After 72 hours drug treatment, cell viability was measured by using the WST reagent following the instructions.
# The cells were treated with the gradient concentration of these compounds (the maximum concentration: 10 μM; 3-fold dilution ratio, 10 concentration gradients) for 72 hours and then incubated with the WST (CCK8) reagent to determine the cell viability.
# [2] = system: HCC827 cells (EGFR Exon19 del, non-small cell lung cancer cells); test: Cell viability assay (WST/CCK8), HCC827 cells; assay type: cell-based; conditions: Homo sapiens, HCC827, 72 h, 72 hours, read-out: IC50 (half inhibitory concentration)
# Outline: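 Plated 3 000 cells/well in complete RPMI1640 the day before dosing; controls were DMSO (negative) and EGFR TKIs (positive).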
# [3] = HCC827 (Exon19 Del), WST (CCK8)
# [4] = Table 4, gefitinib and sapitinib-based compounds, HCC827 (Exon19 Del), WST
# [5] = Table 8, osimertinib-based compounds, HCC827, WST
# [6] = Table 5, afatinib-based compounds, HCC827 (Exon19 Del), WST
smiles,measurement,setting,value
"C=CC(=O)Nc1cc2c(Nc3ccc(F)c(Cl)c3)ncnc2cc1OCCCN1CCC(N2CCNCC2)CC1 [Caneritinib derivative B (SIAIS249183), N-(4-((3-chloro-4-fluorophenyl)amino)-7-(3-(4-(piperazin-1-yl)piperidin-1-yl)propoxy)quinazolin-6-yl)acrylamide]",IC50,"[1]; Table 6, canertinib-based compounds, WST",13.9 nM
same,IC50,"[2]; Table 6, canertinib-based compounds, HCC827 (Exon19 Del), WST",15.9 nM
"COc1cc2ncnc(Nc3ccc(F)c(Cl)c3)c2cc1NC(=O)/C=C/CN1CCNCC1 [Dacomitinib derivative A, (E)-N-(4-((3-chloro-4-fluorophenyl)amino)-7-methoxyquinazolin-6-yl)-4-(piperazin-1-yl)but-2-enamide]",IC50,[1]; WST (CCK8),9.7 nM
same,IC50,[2]; [3],4 nM
"COc1cc2ncnc(Nc3ccc(F)c(Cl)c3)c2cc1OCCCN1CCN(C(=O)CCCCCSc2cccc3c2C(=O)N(C2CCC(=O)NC2=O)C3=O)CC1 (stereo not drawn) [SIAIS184166, 4-((6-(4-(3-((4-((3-chloro-4-fluorophenyl)amino)-7-methoxyquinazolin-6-yl)oxy)propyl)piperazin-1-yl)-6-oxohexyl)thio)-2-(2,6-dioxopiperidin-3-yl)isoindoline-1,3-dione]",IC50,"[1]; Table 4, gefitinib-based compounds, WST",692 nM
same,IC50,[2]; [4],80 nM
"COc1cc2ncnc(Nc3cccc(Cl)c3F)c2cc1OC1CCN(CC(=O)NCCCCCCSc2cccc3c2CN(C2CCC(=O)NC2=O)C3=O)CC1 (stereo not drawn) [SIAIS293068, 2-(4-((4-((3-chloro-2-fluorophenyl)amino)-7-methoxyquinazolin-6-yl)oxy)piperidin-1-yl)-N-(6-((2-(2,6-dioxopiperidin-3-yl)-1-oxoisoindolin-4-yl)thio)hexyl)acetamide]",IC50,[2]; [4],1.2 nM
"COc1cc2ncnc(Nc3cccc(Cl)c3F)c2cc1OC1CCN(CC(=O)NCCCCCCCSc2cccc3c2CN(C2CCC(=O)NC2=O)C3=O)CC1 (stereo not drawn) [SIAIS293069, 2-(4-((4-((3-chloro-2-fluorophenyl)amino)-7-methoxyquinazolin-6-yl)oxy)piperidin-1-yl)-N-(7-((2-(2,6-dioxopiperidin-3-yl)-1-oxoisoindolin-4-yl)thio)heptyl)acetamide]",IC50,[2]; [4],9.4 nM
"COc1cc2ncnc(Nc3cccc(Cl)c3F)c2cc1OC1CCN(CC(=O)NCCCCCCCCSc2cccc3c2CN(C2CCC(=O)NC2=O)C3=O)CC1 (stereo not drawn) [SIAIS293070, 2-(4-((4-((3-chloro-2-fluorophenyl)amino)-7-methoxyquinazolin-6-yl)oxy)piperidin-1-yl)-N-(8-((2-(2,6-dioxopiperidin-3-yl)-1-oxoisoindolin-4-yl)thio)octyl)acetamide]",IC50,[2]; [4],14 nM
"COc1cc2ncnc(Nc3ccc(F)c(Cl)c3)c2cc1NC(=O)/C=C/CN1CCC(N2CCN(CCCCCCCCCCCSc3cccc4c3CN(C3CCC(=O)NC3=O)C4=O)CC2)CC1 (stereo not drawn) [SIAIS337040, (E)-N-(4-((3-chloro-4-fluorophenyl)amino)-7-methoxyquinazolin-6-yl)-4-(4-(4-(11-((2-(2,6-dioxopiperidin-3-yl)-1-oxoisoindolin-4-yl)thio)undecyl)piperazin-1-yl)piperidin-1-yl)but-2-enamide]",IC50,[2]; [3],26.8 nM
"C=CC(=O)Nc1cc(Nc2nccc(-c3cn(C)c4ccccc34)n2)c(OC)cc1N(C)CCN(C)C(=O)CSc1cccc2c1CN(C1CCC(=O)NC1=O)C2=O (stereo not drawn) [SIAIS337052, N-(2-((2-(2-((2-(2,6-dioxopiperidin-3-yl)-1-oxoisoindolin-4-yl)thio)-N-methylacetamido)ethyl)(methyl)amino)-4-methoxy-5-((4-(1-methyl-1H-indol-3-yl)pyrimidin-2-yl)amino)phenyl)acrylamide]",IC50,[2]; [5],353 nM
"C=CC(=O)Nc1cc(Nc2nccc(-c3cn(C)c4ccccc34)n2)c(OC)cc1N(C)CCN(C)C(=O)CCCCSc1cccc2c1CN(C1CCC(=O)NC1=O)C2=O (stereo not drawn) [SIAIS337055, N-(2-((2-acrylamido-5-methoxy-4-((4-(1-methyl-1H-indol-3-yl)pyrimidin-2-yl)amino)phenyl)(methyl)amino)ethyl)-5-((2-(2,6-dioxopiperidin-3-yl)-1-oxoisoindolin-4-yl)thio)-N-methylpentanamide]",IC50,[2]; [5],461 nM
"C=CC(=O)Nc1cc(Nc2nccc(-c3cn(C)c4ccccc34)n2)c(OC)cc1N(C)CCN(C)C(=O)CCCCCCCCSc1cccc2c1CN(C1CCC(=O)NC1=O)C2=O (stereo not drawn) [SIAIS337059, N-(2-((2-acrylamido-5-methoxy-4-((4-(1-methyl-1H-indol-3-yl)pyrimidin-2-yl)amino)phenyl)(methyl)amino)ethyl)-9-((2-(2,6-dioxopiperidin-3-yl)-1-oxoisoindolin-4-yl)thio)-N-methylnonanamide]",IC50,[2]; [5],46.7 nM
"C=CC(=O)Nc1cc(Nc2nccc(-c3cn(C)c4ccccc34)n2)c(OC)cc1N(C)CCN(C)C(=O)CCCCCCCCCCSc1cccc2c1CN(C1CCC(=O)NC1=O)C2=O (stereo not drawn) [SIAIS337061, N-(2-((2-acrylamido-5-methoxy-4-((4-(1-methyl-1H-indol-3-yl)pyrimidin-2-yl)amino)phenyl)(methyl)amino)ethyl)-11-((2-(2,6-dioxopiperidin-3-yl)-1-oxoisoindolin-4-yl)thio)-N-methylundecanamide]",IC50,[2]; [5],353 nM
"C=CC(=O)Nc1cc(Nc2nccc(-c3cn(C)c4ccccc34)n2)c(OC)cc1N(C)CCN(C)C(=O)COCCOCCSc1cccc2c1CN(C1CCC(=O)NC1=O)C2=O (stereo not drawn) [SIAIS337075, N-(2-((2-(2-(2-(2-((2-(2,6-dioxopiperidin-3-yl)-1-oxoisoindolin-4-yl)thio)ethoxy)ethoxy)-N-methylacetamido)ethyl)(methyl)amino)-4-methoxy-5-((4-(1-methyl-1H-indol-3-yl)pyrimidin-2-yl)amino)phenyl)acrylamide]",IC50,[2]; [5],170 nM
"C=CC(=O)Nc1cc(Nc2nccc(-c3cn(C)c4ccccc34)n2)c(OC)cc1N(C)CCN(C)C(=O)COCCOCCOCCOCCSc1cccc2c1CN(C1CCC(=O)NC1=O)C2=O (stereo not drawn) [SIAIS337077, N-(2-((2-acrylamido-5-methoxy-4-((4-(1-methyl-1H-indol-3-yl)pyrimidin-2-yl)amino)phenyl)(methyl)amino)ethyl)-14-((2-(2,6-dioxopiperidin-3-yl)-1-oxoisoindolin-4-yl)thio)-N-methyl-3,6,9,12-tetraoxatetradecanamide]",IC50,[2]; [5],36 nM
"C=CC(=O)Nc1cc(Nc2nccc(-c3cn(C)c4ccccc34)n2)c(OC)cc1N(C)CCN(C)C(=O)COCCOCCOCCOCCOCCSc1cccc2c1CN(C1CCC(=O)NC1=O)C2=O (stereo not drawn) [SIAIS337078, N-(2-((2-acrylamido-5-methoxy-4-((4-(1-methyl-1H-indol-3-yl)pyrimidin-2-yl)amino)phenyl)(methyl)amino)ethyl)-17-((2-(2,6-dioxopiperidin-3-yl)-1-oxoisoindolin-4-yl)thio)-N-methyl-3,6,9,12,15-pentaoxaheptadecanamide]",IC50,[2]; [5],125 nM
"O=C1CCC(N2Cc3c(SCCC(=O)Nc4cc5c(Nc6ccc(F)c(Cl)c6)ncnc5cc4O[C@H]4CCOC4)cccc3C2=O)C(=O)N1 (stereo partly drawn) [SIAIS1210085, N-(4-((3-chloro-4-fluorophenyl)amino)-7-(((S)-tetrahydrofuran-3-yl)oxy)quinazolin-6-yl)-3-((2-(2,6-dioxopiperidin-3-yl)-1-oxoisoindolin-4-yl)thio)propanamide]",IC50,[2]; [6],481 nM
"O=C1CCC(N2Cc3c(SCCCC(=O)Nc4cc5c(Nc6ccc(F)c(Cl)c6)ncnc5cc4O[C@H]4CCOC4)cccc3C2=O)C(=O)N1 (stereo partly drawn) [SIAIS1210087, N-(4-((3-chloro-4-fluorophenyl)amino)-7-(((S)-tetrahydrofuran-3-yl)oxy)quinazolin-6-yl)-4-((2-(2,6-dioxopiperidin-3-yl)-1-oxoisoindolin-4-yl)thio)butanamide]",IC50,[2]; [6],238 nM
"O=C1CCC(N2Cc3c(SCCCCCC(=O)Nc4cc5c(Nc6ccc(F)c(Cl)c6)ncnc5cc4O[C@H]4CCOC4)cccc3C2=O)C(=O)N1 (stereo partly drawn) [SIAIS1210089, N-(4-((3-chloro-4-fluorophenyl)amino)-7-(((S)-tetrahydrofuran-3-yl)oxy)quinazolin-6-yl)-6-((2-(2,6-dioxopiperidin-3-yl)-1-oxoisoindolin-4-yl)thio)hexanamide]",IC50,[2]; [6],160 nM
"CNC(=O)CN1CCC(Oc2cc3c(Nc4cccc(Cl)c4F)ncnc3cc2OC)CC1 [Sapitinib (AZD8931), sapitinib, reference compound]",IC50,[2]; [4],0.4 nM
